Results reported in ChEMBL document CHEMBL4043168, “The design and SAR of a novel series of 2-aminopyridine based LRRK2 inhibitors” (Bioorg Med Chem Lett, 2017).

Experiments:
[1] = molecular target: NUAK family SNF1-like kinase 2 (Homo sapiens) (UniProt Q9H093); assay: Inhibition of NuaK2 conserved Lys1 (LVAIKSIR) in human PBMC at 1 uM
[2] = molecular target: T1, Mitogen-activated protein kinase kinase kinase 5 (Homo sapiens) (UniProt Q99683); assay: Inhibition of MAP3K5 conserved Lys2 (DIKGDNVLINTYSGVLK) in human PBMC at 0.1 uM
T1 sequence (whole entry): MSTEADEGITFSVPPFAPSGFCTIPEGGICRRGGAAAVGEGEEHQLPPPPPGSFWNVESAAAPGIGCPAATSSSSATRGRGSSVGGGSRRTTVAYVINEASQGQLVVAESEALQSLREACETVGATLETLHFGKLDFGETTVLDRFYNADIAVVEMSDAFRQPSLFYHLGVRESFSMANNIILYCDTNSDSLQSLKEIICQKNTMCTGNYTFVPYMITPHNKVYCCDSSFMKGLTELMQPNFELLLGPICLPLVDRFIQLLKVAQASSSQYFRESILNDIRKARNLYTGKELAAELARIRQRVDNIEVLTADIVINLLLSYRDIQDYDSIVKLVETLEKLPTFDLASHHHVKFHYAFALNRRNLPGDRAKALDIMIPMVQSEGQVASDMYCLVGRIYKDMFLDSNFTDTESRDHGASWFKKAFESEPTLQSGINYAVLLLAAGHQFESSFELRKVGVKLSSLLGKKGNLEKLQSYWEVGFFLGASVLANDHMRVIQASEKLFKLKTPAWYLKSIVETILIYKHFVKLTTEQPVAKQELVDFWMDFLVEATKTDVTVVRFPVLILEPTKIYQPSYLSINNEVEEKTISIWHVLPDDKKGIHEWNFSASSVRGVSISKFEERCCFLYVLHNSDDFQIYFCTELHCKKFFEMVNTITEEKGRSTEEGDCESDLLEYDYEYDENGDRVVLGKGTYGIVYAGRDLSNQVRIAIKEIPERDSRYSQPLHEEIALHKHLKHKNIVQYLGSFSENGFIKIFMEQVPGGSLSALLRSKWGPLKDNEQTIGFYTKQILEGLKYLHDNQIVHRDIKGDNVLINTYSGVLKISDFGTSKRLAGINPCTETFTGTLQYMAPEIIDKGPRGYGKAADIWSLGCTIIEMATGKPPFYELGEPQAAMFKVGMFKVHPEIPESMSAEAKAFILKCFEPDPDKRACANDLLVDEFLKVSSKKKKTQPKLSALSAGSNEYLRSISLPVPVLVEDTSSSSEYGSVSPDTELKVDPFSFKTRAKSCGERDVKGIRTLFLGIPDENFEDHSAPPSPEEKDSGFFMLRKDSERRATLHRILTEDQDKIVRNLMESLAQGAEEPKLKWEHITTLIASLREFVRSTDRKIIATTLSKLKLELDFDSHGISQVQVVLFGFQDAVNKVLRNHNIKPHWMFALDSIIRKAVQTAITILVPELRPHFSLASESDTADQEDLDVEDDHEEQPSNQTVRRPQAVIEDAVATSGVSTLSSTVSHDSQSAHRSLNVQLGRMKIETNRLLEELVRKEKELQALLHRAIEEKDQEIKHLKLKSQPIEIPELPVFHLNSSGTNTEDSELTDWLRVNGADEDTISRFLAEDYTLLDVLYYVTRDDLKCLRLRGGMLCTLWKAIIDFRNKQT

[3] = molecular target: T2, Tyrosine-protein kinase JAK3 (Homo sapiens) (UniProt P52333); assay: Inhibition of JAK3 domain2 conserved Lys1 (YDPLGDNTGALVAVKQLQHSGPDQQR) in human PBMC at 1 uM
T2 sequence (whole entry): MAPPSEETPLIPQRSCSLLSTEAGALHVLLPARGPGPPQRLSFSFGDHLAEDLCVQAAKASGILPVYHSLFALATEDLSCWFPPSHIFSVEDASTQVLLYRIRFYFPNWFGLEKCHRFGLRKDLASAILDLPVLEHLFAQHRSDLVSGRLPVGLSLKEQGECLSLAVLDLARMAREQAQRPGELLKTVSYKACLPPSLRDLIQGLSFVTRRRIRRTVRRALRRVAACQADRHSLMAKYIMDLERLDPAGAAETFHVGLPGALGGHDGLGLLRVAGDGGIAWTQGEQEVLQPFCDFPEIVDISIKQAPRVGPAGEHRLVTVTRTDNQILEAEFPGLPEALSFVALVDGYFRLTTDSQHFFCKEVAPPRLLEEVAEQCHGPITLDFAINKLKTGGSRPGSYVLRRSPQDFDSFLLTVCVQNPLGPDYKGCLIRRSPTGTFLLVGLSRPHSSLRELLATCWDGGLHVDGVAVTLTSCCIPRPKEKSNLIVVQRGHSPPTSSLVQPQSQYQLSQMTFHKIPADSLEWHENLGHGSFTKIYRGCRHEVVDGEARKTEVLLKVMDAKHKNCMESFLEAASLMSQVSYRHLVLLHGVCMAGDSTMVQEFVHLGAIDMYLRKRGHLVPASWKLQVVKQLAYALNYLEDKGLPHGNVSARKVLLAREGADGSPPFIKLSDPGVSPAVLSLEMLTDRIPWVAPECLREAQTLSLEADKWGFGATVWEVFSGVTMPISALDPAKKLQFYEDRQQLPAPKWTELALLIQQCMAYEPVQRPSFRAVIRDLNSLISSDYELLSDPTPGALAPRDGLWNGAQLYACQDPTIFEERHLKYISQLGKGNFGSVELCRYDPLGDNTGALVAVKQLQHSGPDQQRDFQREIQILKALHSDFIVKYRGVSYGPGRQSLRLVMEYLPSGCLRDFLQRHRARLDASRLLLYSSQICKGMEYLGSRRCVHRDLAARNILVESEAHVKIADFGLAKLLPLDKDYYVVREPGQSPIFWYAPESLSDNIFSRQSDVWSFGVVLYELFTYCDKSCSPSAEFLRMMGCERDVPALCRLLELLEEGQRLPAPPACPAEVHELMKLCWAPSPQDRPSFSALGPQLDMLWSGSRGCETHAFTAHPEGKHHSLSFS

[4] = molecular target: T1, Mitogen-activated protein kinase kinase kinase 5 (Homo sapiens); assay: Inhibition of MAP3K5 conserved Lys2 (DIKGDNVLINTYSGVLK) in human PBMC at 1 uM
[5] = molecular target: Mitogen-activated protein kinase 8 (Homo sapiens) (UniProt P45983); assay: Inhibition of JNK1 conserved Lys2 (DLKPSNIVVK) in human PBMC at 0.1 uM
Chain of Mitogen-activated protein kinase 8 (Homo sapiens) (P45983 whole entry): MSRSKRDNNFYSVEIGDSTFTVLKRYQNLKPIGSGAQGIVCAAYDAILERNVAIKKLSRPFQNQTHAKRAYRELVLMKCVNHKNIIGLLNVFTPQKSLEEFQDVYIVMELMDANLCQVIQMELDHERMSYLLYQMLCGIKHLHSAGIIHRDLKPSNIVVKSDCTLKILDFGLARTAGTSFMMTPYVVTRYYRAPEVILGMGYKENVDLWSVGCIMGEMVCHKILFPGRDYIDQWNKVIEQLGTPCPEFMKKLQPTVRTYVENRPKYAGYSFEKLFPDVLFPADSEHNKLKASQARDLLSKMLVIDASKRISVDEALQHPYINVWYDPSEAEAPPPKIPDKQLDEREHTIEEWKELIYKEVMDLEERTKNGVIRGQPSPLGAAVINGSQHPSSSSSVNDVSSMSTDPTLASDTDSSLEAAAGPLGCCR

[6] = molecular target: Calcium/calmodulin-dependent protein kinase type II subunit gamma (Homo sapiens) (UniProt Q13555); assay: Inhibition of CaMK2g labeling at conserved Lys1 (TSTQEYAAKIINTK) in human PBMC at 0.1 uM
Chain of Calcium/calmodulin-dependent protein kinase type II subunit gamma (Homo sapiens) (Q13555 whole entry): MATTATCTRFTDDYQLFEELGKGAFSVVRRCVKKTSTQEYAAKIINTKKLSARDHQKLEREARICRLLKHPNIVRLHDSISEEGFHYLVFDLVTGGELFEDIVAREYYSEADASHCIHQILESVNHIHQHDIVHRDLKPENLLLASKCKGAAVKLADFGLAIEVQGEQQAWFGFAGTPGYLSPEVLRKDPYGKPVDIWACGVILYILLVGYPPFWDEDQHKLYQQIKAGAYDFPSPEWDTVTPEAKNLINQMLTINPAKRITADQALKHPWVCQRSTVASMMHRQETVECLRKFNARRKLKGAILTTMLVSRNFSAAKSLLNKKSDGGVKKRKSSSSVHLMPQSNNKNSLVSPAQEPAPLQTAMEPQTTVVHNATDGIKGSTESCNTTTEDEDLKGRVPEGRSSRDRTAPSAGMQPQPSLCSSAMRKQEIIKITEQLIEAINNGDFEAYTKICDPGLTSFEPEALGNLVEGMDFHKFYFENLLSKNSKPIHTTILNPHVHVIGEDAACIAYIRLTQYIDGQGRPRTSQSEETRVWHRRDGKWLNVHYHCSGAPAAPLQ

[7] = molecular target: Tyrosine-protein kinase Fer (Homo sapiens) (UniProt P16591); assay: Inhibition of FER conserved Lys2 (QEDGGVYSSSGLKQIPIK) in human PBMC at 0.1 uM
Chain of Tyrosine-protein kinase Fer (Homo sapiens) (P16591 whole entry, looked up, the tested form may be a part): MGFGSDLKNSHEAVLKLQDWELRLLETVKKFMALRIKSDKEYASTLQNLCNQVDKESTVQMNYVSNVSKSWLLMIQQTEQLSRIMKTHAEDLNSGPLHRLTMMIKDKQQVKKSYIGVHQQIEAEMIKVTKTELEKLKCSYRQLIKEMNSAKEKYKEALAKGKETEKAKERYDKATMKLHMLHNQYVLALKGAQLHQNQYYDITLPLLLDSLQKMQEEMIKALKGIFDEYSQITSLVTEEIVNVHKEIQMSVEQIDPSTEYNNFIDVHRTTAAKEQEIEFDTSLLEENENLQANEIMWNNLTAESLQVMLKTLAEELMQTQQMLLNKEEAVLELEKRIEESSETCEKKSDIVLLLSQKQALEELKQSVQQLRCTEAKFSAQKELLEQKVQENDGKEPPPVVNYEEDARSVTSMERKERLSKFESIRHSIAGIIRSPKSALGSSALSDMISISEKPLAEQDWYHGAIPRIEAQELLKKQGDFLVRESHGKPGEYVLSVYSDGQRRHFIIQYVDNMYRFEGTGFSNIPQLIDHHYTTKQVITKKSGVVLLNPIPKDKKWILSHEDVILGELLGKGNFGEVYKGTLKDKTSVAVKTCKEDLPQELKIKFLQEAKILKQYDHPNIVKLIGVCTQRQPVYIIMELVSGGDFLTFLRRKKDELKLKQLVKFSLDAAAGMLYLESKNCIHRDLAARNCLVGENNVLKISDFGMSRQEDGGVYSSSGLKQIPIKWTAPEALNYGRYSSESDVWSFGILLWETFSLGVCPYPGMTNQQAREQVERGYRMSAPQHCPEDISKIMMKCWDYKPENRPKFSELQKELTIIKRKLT

[8] = molecular target: Ribosomal protein S6 kinase alpha-2 (Homo sapiens) (UniProt Q15349); assay: Inhibition of RSK3 domain1 conserved Lys2 (DLKPENILLDEEGHIKITDFGLSK) in human PBMC at 0.1 uM
Chain of Ribosomal protein S6 kinase alpha-2 (Homo sapiens) (Q15349 whole entry, the tested form may be a part): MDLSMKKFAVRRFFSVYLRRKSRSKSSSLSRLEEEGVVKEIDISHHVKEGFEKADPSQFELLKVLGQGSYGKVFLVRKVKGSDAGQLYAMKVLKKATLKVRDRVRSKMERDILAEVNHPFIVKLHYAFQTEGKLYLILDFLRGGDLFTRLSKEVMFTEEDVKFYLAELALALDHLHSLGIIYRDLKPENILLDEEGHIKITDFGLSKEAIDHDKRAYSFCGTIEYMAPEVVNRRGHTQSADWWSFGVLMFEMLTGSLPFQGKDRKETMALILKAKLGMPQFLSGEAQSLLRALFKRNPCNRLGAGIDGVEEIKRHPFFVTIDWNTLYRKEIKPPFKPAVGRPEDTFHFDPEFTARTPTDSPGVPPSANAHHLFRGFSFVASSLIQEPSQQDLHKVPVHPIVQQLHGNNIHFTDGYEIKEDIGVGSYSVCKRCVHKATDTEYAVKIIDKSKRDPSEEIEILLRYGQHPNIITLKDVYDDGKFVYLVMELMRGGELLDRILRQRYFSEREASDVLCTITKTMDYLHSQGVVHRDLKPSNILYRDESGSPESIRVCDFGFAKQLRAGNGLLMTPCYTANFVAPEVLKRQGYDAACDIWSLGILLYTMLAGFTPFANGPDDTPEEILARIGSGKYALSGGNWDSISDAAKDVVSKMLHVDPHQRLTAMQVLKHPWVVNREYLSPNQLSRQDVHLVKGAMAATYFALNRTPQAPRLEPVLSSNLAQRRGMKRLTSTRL

Chain of NUAK family SNF1-like kinase 2 (Homo sapiens) (Q9H093 whole entry): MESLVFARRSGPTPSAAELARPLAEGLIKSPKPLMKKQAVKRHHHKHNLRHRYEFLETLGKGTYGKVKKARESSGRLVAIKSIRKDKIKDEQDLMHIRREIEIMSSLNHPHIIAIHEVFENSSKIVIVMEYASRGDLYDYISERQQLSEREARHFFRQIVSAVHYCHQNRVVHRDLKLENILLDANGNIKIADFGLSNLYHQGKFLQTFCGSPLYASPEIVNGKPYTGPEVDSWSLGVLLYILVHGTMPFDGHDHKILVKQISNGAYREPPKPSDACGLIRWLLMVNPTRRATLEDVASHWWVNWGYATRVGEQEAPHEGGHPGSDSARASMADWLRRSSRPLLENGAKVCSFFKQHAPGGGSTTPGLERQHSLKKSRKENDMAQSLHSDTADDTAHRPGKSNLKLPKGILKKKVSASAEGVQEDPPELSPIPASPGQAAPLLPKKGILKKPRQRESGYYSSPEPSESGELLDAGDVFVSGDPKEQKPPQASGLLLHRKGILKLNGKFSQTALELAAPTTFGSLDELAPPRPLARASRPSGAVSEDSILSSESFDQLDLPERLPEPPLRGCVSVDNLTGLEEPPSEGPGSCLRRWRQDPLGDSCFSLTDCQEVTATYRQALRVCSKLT

CC(C)n1cc(-c2cc(-c3ccc(CN4CCOCC4)cc3)cnc2N)nn1
inhibition [1]: -8.4% | inhibition [2]: 11% | inhibition [3]: -0.9% | inhibition [4]: 25.3% | inhibition [5]: 25.1% | inhibition [6]: -4.5% | inhibition [7]: 8.5% | inhibition [8]: 13%
